Experiment: xn = mol fraction of the nth substance listed
Conditions: 101 kPa, Liquid; for speed of sound: Sing-around technique in a fixed-path interferometer; for mass density: Vibrating tube method

NCCNCCN [di(2-aminoethyl)amine] + CC(C)CO
Conditions | mass density [kg/m3] | speed of sound [m/s] | viscosity [mPa·s]
293.15 K, x1 = 0.054 | 815.237 | 1243 | –
293.15 K, x1 = 0.1043 | 826.644 | 1275.2 | –
293.15 K, x1 = 0.1529 | 836.817 | 1305.2 | –
293.15 K, x1 = 0.2068 | 847.162 | 1337.4 | –
293.15 K, x1 = 0.2535 | 855.512 | 1364.9 | –
293.15 K, x1 = 0.305 | 863.833 | 1390.5 | –
293.15 K, x1 = 0.4057 | 878.879 | 1439.4 | –
293.15 K, x1 = 0.5036 | 892.182 | 1484.7 | –
293.15 K, x1 = 0.6053 | 905.319 | 1531.6 | –
293.15 K, x1 = 0.7048 | 919.507 | 1570.3 | –
293.15 K, x1 = 0.8098 | 929.46 | 1613.2 | –
293.15 K, x1 = 0.8522 | 933.916 | 1630.9 | –
293.15 K, x1 = 0.9074 | 939.952 | 1653.2 | –
293.15 K, x1 = 0.9537 | 944.995 | 1671.9 | –
298.15 K, x1 = 0.054 | 811.313 | 1226.2 | 4.027
298.15 K, x1 = 0.1043 | 822.66 | 1258 | 4.548
298.15 K, x1 = 0.1529 | 832.792 | 1287.9 | 5.094
298.15 K, x1 = 0.2068 | 843.096 | 1319.8 | 5.514
298.15 K, x1 = 0.2535 | 851.38 | 1345.4 | 5.73
298.15 K, x1 = 0.305 | 859.744 | 1372.5 | 5.908
298.15 K, x1 = 0.4057 | 874.785 | 1421.6 | 6.024
298.15 K, x1 = 0.5036 | 888.088 | 1466.7 | 5.962
298.15 K, x1 = 0.6053 | 901.203 | 1511.4 | 5.795
298.15 K, x1 = 0.7048 | 915.398 | 1551.7 | 5.661
298.15 K, x1 = 0.8098 | 925.283 | 1594.3 | 5.603
298.15 K, x1 = 0.8522 | 929.73 | 1611.7 | 5.574
298.15 K, x1 = 0.9074 | 935.74 | 1633.9 | 5.541
298.15 K, x1 = 0.9537 | 940.776 | 1651.9 | 5.539
303.15 K, x1 = 0.054 | 807.355 | 1209.3 | 3.292
303.15 K, x1 = 0.1043 | 818.653 | 1241.1 | 3.707
303.15 K, x1 = 0.1529 | 828.735 | 1270.7 | 4.092
303.15 K, x1 = 0.2068 | 839.013 | 1302.4 | 4.365
303.15 K, x1 = 0.2535 | 847.289 | 1328.1 | 4.521
303.15 K, x1 = 0.305 | 855.641 | 1355.1 | 4.656
303.15 K, x1 = 0.4057 | 870.683 | 1404.1 | 4.762
303.15 K, x1 = 0.5036 | 883.968 | 1449.2 | 4.732
303.15 K, x1 = 0.6053 | 897.071 | 1493.2 | 4.695
303.15 K, x1 = 0.7048 | 911.268 | 1533.6 | 4.652
303.15 K, x1 = 0.8098 | 921.103 | 1575.5 | 4.575
303.15 K, x1 = 0.8522 | 925.54 | 1592.9 | 4.525
303.15 K, x1 = 0.9074 | 931.531 | 1614.5 | 4.508
303.15 K, x1 = 0.9537 | 936.554 | 1632.6 | 4.49
308.15 K, x1 = 0.054 | 803.363 | 1192.6 | 2.815
308.15 K, x1 = 0.1043 | 814.618 | 1224.2 | 3.146
308.15 K, x1 = 0.1529 | 824.666 | 1254 | 3.463
308.15 K, x1 = 0.2068 | 834.918 | 1285.4 | 3.654
308.15 K, x1 = 0.2535 | 843.178 | 1310.6 | 3.768
308.15 K, x1 = 0.305 | 851.532 | 1337.4 | 3.855
308.15 K, x1 = 0.4057 | 866.568 | 1386.9 | 3.927
308.15 K, x1 = 0.5036 | 879.851 | 1431.7 | 3.966
308.15 K, x1 = 0.6053 | 892.938 | 1475.8 | 3.919
308.15 K, x1 = 0.7048 | 907.117 | 1515.9 | 3.899
308.15 K, x1 = 0.8098 | 916.922 | 1556.7 | 3.817
308.15 K, x1 = 0.8522 | 921.354 | 1574.1 | 3.807
308.15 K, x1 = 0.9074 | 927.328 | 1595.3 | 3.789
308.15 K, x1 = 0.9537 | 932.338 | 1613.3 | 3.78
313.15 K, x1 = 0.054 | 799.326 | 1175.8 | –
313.15 K, x1 = 0.1043 | 810.545 | 1208 | –
313.15 K, x1 = 0.1529 | 820.566 | 1237.8 | –
313.15 K, x1 = 0.2068 | 830.795 | 1269.1 | –
313.15 K, x1 = 0.2535 | 839.045 | 1294.6 | –
313.15 K, x1 = 0.305 | 847.399 | 1321.3 | –
313.15 K, x1 = 0.4057 | 862.439 | 1371 | –
313.15 K, x1 = 0.5036 | 875.718 | 1414.9 | –
313.15 K, x1 = 0.6053 | 888.795 | 1459.1 | –
313.15 K, x1 = 0.7048 | 902.896 | 1499.5 | –
313.15 K, x1 = 0.8098 | 912.74 | 1538.9 | –
313.15 K, x1 = 0.8522 | 917.161 | 1555.8 | –
313.15 K, x1 = 0.9074 | 923.121 | 1576.3 | –
313.15 K, x1 = 0.9537 | 928.116 | 1593.7 | –

From the NIST ThermoML archive (doi:10.1016/j.tca.2011.06.003)
